Data set [1] can be described thus: Distribution constant, log D of compound at pH 6.5. Format: physicochemical. Particulars: buffer.
For another data set, the target named is Cytochrome P450 3A4 (Homo sapiens, UniProt P08684). Kind of data set: Competitive inhibition of CYP3A4 in human liver microsomes in presence of NADPH by LC-MS/MS analysis. Format: ADME.
Data set [2] in a line: Volume of distribution at steady state in cynomolgus monkey at 1 mg/kg, iv or 3 mg/kg, po. Format: ADME, organism-based, Macaca fascicularis. The following applies: in vivo, read-out: Vdss.
Data set [3] is described as follows: Oral bioavailability in rat at 6 mg/kg. In kind it is ADME, organism-based. Particulars: in vivo.
The nature of data set [4]: Oral bioavailability in cynomolgus monkey at […]. Format: ADME, organism-based, Macaca fascicularis. The following applies: in vivo.
The nature of data set [5]: AUC in dog at 3 mg/kg, po. In kind it is ADME, organism-based, Canis lupus familiaris. The following applies: in vivo.
The nature of data set [6]: Clearance in dog at 1 mg/kg, iv or 3 mg/kg, po. Format: ADME, organism-based, Canis lupus familiaris. Particulars: in vivo.
A short description of data set [7]: AUC in rat at 6 mg/kg, po. Format: ADME, organism-based. The following applies: in vivo.
A short description of data set [8]: Volume of distribution at steady state in rat at 2 mg/kg, iv or 6 mg/kg, po. In kind it is ADME, organism-based. Particulars: in vivo, read-out: Vdss.
A short description of data set [9]: Clearance in rat at 2 mg/kg, iv or 6 mg/kg, po. In kind it is ADME, organism-based. The following applies: in vivo.
A short description of data set [10]: AUC in cynomolgus monkey at 3 mg/kg, po. Particulars: in vivo. In kind it is ADME, organism-based, Macaca fascicularis.
A short description of data set [11]: Volume of distribution at steady state in dog at 1 mg/kg, iv or 3 mg/kg, po. Format: ADME, organism-based, Canis lupus familiaris. Particulars: in vivo, read-out: Vdss.
The nature of data set [12]: Oral bioavailability in dog at 6 mg/kg. Format: ADME, organism-based, Canis lupus familiaris. The following applies: in vivo.
Data set [13] can be described thus: Clearance in cynomolgus monkey at 1 mg/kg, iv or 3 mg/kg, po. In kind it is ADME, organism-based, Macaca fascicularis. The following applies: in vivo.
Data set [14] relates to Hepatitis C virus. Nature of the data set: Antiviral activity against HCV genotype 1a infected in human HuH7 cells assessed as reduction in viral RNA replication after 3 days in presence of human serum by Dual-Glo luciferase reporter gene assay. Particulars: subtype 1a, Huh-7, 72 h. Format: functional, cell-based, Hepacivirus hominis.
Data set [15] relates to Hepatitis C virus. Kind of data set: Antiviral activity against HCV genotype 1a infected in human HuH7 cells assessed as reduction in viral RNA replication after 3 days by Dual-Glo luciferase reporter gene assay. In kind it is functional, cell-based, Hepacivirus hominis. The following applies: subtype 1a, Huh-7, 72 h.

Chain of Cytochrome P450 3A4 (P08684 whole entry): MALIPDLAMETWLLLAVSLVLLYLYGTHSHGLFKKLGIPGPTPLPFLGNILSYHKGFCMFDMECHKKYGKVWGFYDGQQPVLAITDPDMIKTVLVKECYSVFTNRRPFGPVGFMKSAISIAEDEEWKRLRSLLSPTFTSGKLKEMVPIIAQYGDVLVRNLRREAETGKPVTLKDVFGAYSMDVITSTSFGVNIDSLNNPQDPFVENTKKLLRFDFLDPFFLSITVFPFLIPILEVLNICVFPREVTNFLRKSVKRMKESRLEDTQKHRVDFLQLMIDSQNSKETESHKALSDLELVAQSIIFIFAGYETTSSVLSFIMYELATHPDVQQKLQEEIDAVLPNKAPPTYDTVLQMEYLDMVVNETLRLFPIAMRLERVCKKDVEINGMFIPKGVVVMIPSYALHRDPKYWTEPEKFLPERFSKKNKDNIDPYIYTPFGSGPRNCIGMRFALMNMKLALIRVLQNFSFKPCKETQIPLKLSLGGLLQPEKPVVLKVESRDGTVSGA

With `CNC(=O)c1c(-c2ccc(F)cc2)oc2nc(CCC(F)(F)F)c(-c3cccc(C(=O)NC(C)(C)c4ncon4)c3)cc12`, the logD in data set [1] was found to be 4.43.

Consider `CNC(=O)c1c(-c2ccc(F)cc2)oc2nc(CCC(F)(F)F)c(-c3cc(C(=O)NC(C)(C)c4ncon4)c(=O)n(C)c3)cc12`, for which the IC50 at Cytochrome P450 3A4 stood at 440 nM.

Take `[2H]C([2H])([2H])Oc1ncc(-c2cc3c(C(=O)NC)c(-c4ccc(F)cc4)oc3nc2CCC(F)(F)F)cc1C(=O)NC(c1ncon1)(C([2H])([2H])[2H])C([2H])([2H])[2H]`: the logD in data set [1] was 3.73. Further, the Vd was 2.3 L/kg in data set [2], 11 L/kg in data set [8] and 2.1 L/kg in data set [11]. Further, the bioavailability amounted to 100% in [3], 85% in [4] and 90% in data set [12]. Further, the AUC in [5] amounted to 125 µM·h; in data set [7], 95 µM·h; in data set [10], 16 µM·h. Moreover, the clearance came out at 1 mL/min/kg in data set [6], 1.6 mL/min/kg in data set [9] and 4.7 mL/min/kg in data set [13].

On to `[2H]C([2H])([2H])C(NC(=O)c1cccc(-c2cc3c(C(=O)NC)c(-c4ccc(F)cc4)oc3nc2CCC(F)(F)F)c1)(c1ncon1)C([2H])([2H])[2H]`, for which the EC50 came to 146 nM with Hepatitis C virus [14] and 13 nM in the data set with Hepatitis C virus [15].

Source of the values: ChEMBL document CHEMBL4033773, “Improving Metabolic Stability with Deuterium: The Discovery of BMT-052, a Pan-genotypic HCV NS5B Polymerase Inhibitor” (ACS Med Chem Lett, 2017).
